Measurements reported in the supplement of paper PMC10307832.

What was measured:
Test in all cases: relative viability (nuclei count vs DMSO), 5 days (fraction); higher = more cells survive
[1] = system: A549
Method in brief: (§1)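 Five library-drug doses in √10 steps were combined with a fixed anchor-drug dose, or a single drug was given alone, by pin tool to lung cancer cell lines in 1536-well plates the day after seeding. Nuclei were stained and counted after 5 days. Relative viability is the nuclei count in treated wells over that in vehicle wells, taken as the median of duplicate plates.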

[2] = system: Calu-6
Method in brief: as §1

[3] = system: EBC-1
Method in brief: as §1

[4] = system: HCC-78
Method in brief: as §1

[5] = system: IA-LM
Method in brief: as §1

[6] = system: NCI-H1299
Method in brief: as §1

[7] = system: NCI-H1703
Method in brief: as §1

[8] = system: NCI-H2009
Method in brief: as §1

[9] = system: NCI-H460
Method in brief: as §1

[10] = system: NCI-H661
Method in brief: as §1

Compound: CCN(CC)CCCCNc1ncc2cc(-c3cc(OC)cc(OC)c3)c(NC(=O)NC(C)(C)C)nc2n1 + CC1(C)CCC(c2ccc(Cl)cc2)=C(CN2CCN(c3ccc(C(=O)NS(=O)(=O)c4ccc(N[C@H](CCN5CCOCC5)CSc5ccccc5)c(S(=O)(=O)C(F)(F)F)c4)cc3)CC2)C1 [Navitoclax] (partner 0.5 µM)
- relative viability ([1]; first compound 0.01 µM): 1.16
- relative viability ([1]; first compound 0.03162 µM): 1.24
- relative viability ([1]; first compound 0.1 µM): 1.53
- relative viability ([1]; first compound 0.3162 µM): 1.23
- relative viability ([1]; first compound 1 µM): 1.07
- relative viability ([2]; first compound 0.01 µM): 0.729
- relative viability ([2]; first compound 0.03162 µM): 0.946
- relative viability ([2]; first compound 0.1 µM): 1.03
- relative viability ([2]; first compound 0.3162 µM): 1.01
- relative viability ([2]; first compound 1 µM): 0.748
- relative viability ([3]; first compound 0.01 µM): 0.339
- relative viability ([3]; first compound 0.03162 µM): 0.469
- relative viability ([3]; first compound 0.1 µM): 0.442
- relative viability ([3]; first compound 0.3162 µM): 0.357
- relative viability ([3]; first compound 1 µM): 0.37
- relative viability ([4]; first compound 0.03162 µM): 0.75
- relative viability ([4]; first compound 0.1 µM): 0.618
- relative viability ([4]; first compound 0.3162 µM): 0.809
- relative viability ([4]; first compound 1 µM): 0.64
- relative viability ([5]; first compound 0.01 µM): 0.746
- relative viability ([5]; first compound 0.03162 µM): 0.882
- relative viability ([5]; first compound 0.1 µM): 0.969
- relative viability ([5]; first compound 0.3162 µM): 0.73
- relative viability ([5]; first compound 1 µM): 0.866
- relative viability ([6]; first compound 0.01 µM): 1.08
- relative viability ([6]; first compound 0.03162 µM): 1.01
- relative viability ([6]; first compound 0.1 µM): 1.08
- relative viability ([6]; first compound 0.3162 µM): 1.09
- relative viability ([6]; first compound 1 µM): 1.01
- relative viability ([7]; first compound 0.01 µM): 1.07
- relative viability ([7]; first compound 0.1 µM): 1.04
- relative viability ([7]; first compound 0.3162 µM): 1.32
- relative viability ([7]; first compound 1 µM): 0.925
- relative viability ([8]; first compound 0.01 µM): 1.25
- relative viability ([8]; first compound 0.03162 µM): 1.14
- relative viability ([8]; first compound 0.1 µM): 1.21
- relative viability ([8]; first compound 0.3162 µM): 1.31
- relative viability ([8]; first compound 1 µM): 1.11
- relative viability ([9]; first compound 0.01 µM): 1.3
- relative viability ([9]; first compound 0.03162 µM): 1.18
- relative viability ([9]; first compound 0.3162 µM): 1.21
- relative viability ([9]; first compound 1 µM): 1.09

Compound: COc1nc(C)cnc1NS(=O)(=O)c1cccnc1-c1ccc(-c2nnco2)cc1 [Zibotentan] + CC(C)C[C@H](NC(=O)[C@H](Cc1ccccc1)NC(=O)c1cnccn1)B(O)O [Bortezomib] (partner 0.002 µM)
- relative viability ([2]; first compound 0.08 µM): 0.929
- relative viability ([2]; first compound 0.253 µM): 0.888
- relative viability ([2]; first compound 0.8 µM): 1.02
- relative viability ([2]; first compound 2.53 µM): 1.06
- relative viability ([3]; first compound 0.08 µM): 0.704
- relative viability ([3]; first compound 0.253 µM): 0.566
- relative viability ([3]; first compound 0.8 µM): 0.584
- relative viability ([3]; first compound 2.53 µM): 0.592
- relative viability ([4]; first compound 0.08 µM): 0.473
- relative viability ([4]; first compound 0.253 µM): 0.443
- relative viability ([4]; first compound 0.8 µM): 0.563
- relative viability ([4]; first compound 2.53 µM): 0.485
- relative viability ([5]; first compound 0.08 µM): 0.791
- relative viability ([5]; first compound 0.253 µM): 0.758
- relative viability ([5]; first compound 0.8 µM): 0.709
- relative viability ([5]; first compound 2.53 µM): 0.828
- relative viability ([6]; first compound 0.08 µM): 0.999
- relative viability ([6]; first compound 0.253 µM): 0.998
- relative viability ([6]; first compound 0.8 µM): 0.965
- relative viability ([6]; first compound 2.53 µM): 1.08
- relative viability ([7]; first compound 0.08 µM): 0.512
- relative viability ([7]; first compound 0.253 µM): 0.372
- relative viability ([7]; first compound 0.8 µM): 0.38
- relative viability ([7]; first compound 2.53 µM): 0.346
- relative viability ([8]; first compound 0.08 µM): 1.04
- relative viability ([8]; first compound 0.253 µM): 0.973
- relative viability ([8]; first compound 0.8 µM): 1.11
- relative viability ([8]; first compound 2.53 µM): 1.12
- relative viability ([9]; first compound 0.08 µM): 1.25
- relative viability ([9]; first compound 0.8 µM): 1.11
- relative viability ([9]; first compound 2.53 µM): 1.2
- relative viability ([10]; first compound 0.08 µM): 1.02
- relative viability ([10]; first compound 0.253 µM): 0.656
- relative viability ([10]; first compound 0.8 µM): 0.89
- relative viability ([10]; first compound 2.53 µM): 0.841
